Test results: US20230174454A1, “PROCESS OF SYNTHESIZING AND PURIFYING (3R)-HYDROXYBUTYL (3R)-HYDROXYBUTANOATE” (Genomatica, Inc., priority 2020, published 2023)

How the values were obtained:
Miscibility with water = format: physicochemical
From the text: In one specific embodiment, the compound of interest is (R)-3-hydroxybutyl (R)-3-hydroxybutanoate.

[1] = Study to determine the boiling point of (3R)-hydroxybutyl (3R)-hydroxybutyrate, with colour change on boiling; format: physicochemical
Method: A study to determine the boiling point of (3R)-hydroxybutyl (3R)-hydroxybutyrate was performed.

miscibility with water (Miscibility with water; 50/50 (w/w) mixture of water/(R)-3-hydroxybutyl (R)-3-hydroxybutanoate): completely miscible with water
miscibility with water (Miscibility with water; 60/40 (w/w) mixture of water/(R)-3-hydroxybutyl (R)-3-hydroxybutanoate): completely miscible with water
Measured Boiling Point ([1]; Pressure 7 mbar): 155-159 °C
Measured Boiling Point ([1]; Pressure 15 mbar): 165-169 °C
Measured Boiling Point ([1]; Pressure 30 mbar): 174-179 °C
Measured Boiling Point ([1]; Pressure 60 mbar): 186-191 °C
Measured Boiling Point ([1]; Pressure 80 mbar): 197-204 °C
Measured Boiling Point ([1]; Pressure 120 mbar): 208-212 °C
Measured Boiling Point ([1]; Pressure 240 mbar): 215-219 °C
Measured Boiling Point ([1]; Pressure 500 mbar): 224-229 °C
Measured Boiling Point ([1]; Pressure 1000 mbar): 274-280 °C
Color Change ([1]; boiling at 7 mbar): no color change after 2 h of boiling
Color Change ([1]; boiling at 15 mbar): no color change after 2 h of boiling
Color Change ([1]; boiling at 30 mbar): no color change after 2 h of boiling
Color Change ([1]; boiling at 60 mbar): no color change after 2 h of boiling
Color Change ([1]; boiling at 80 mbar): no color change after 2 h of boiling
Structure (SMILES): C[C@@H](O)CCOC(=O)C[C@@H](C)O [(3R)-hydroxybutyl (3R)-hydroxybutyrate, (R)-3-hydroxybutyl (R)-3-hydroxybutanoate]
Color Change ([1]; boiling at 120 mbar): no color change after 1 h of boiling, very slight yellow tint is present after 1 h and 30 min of boiling
Color Change ([1]; boiling at 240 mbar): no color change after 1 h of boiling, very slight yellow tint is present after 1 h and 30 min of boiling
Color Change ([1]; boiling at 500 mbar): no color change after 1 h of boiling, very slight yellow tint is present after 1 h and 30 min of boiling
Color Change ([1]; boiling at 1000 mbar): slight yellow tint is present after 1 hour of boiling
